Test results from ChEMBL document CHEMBL4196092, “Synthesis and biological evaluation of nannocystin analogues toward understanding the binding role of the (2R,3S)-Epoxide in nannocystin A” (Eur J Med Chem, 2018).
Calls of active or inactive are those of the source. The rule behind the calls is not given here.

Legend:
PANC-1 = assay: Antiproliferative activity against human PANC1 cells; type: functional, cell-based
HepG2 = assay: Antiproliferative activity against human HepG2 cells; type: functional, cell-based
Homo sapiens = organism: Homo sapiens; assay: Inhibition of eEF1alpha protein expression in human PANC1 cells by Western blot analysis; type: cell-based
HCT-116 = assay: Antiproliferative activity against human HCT116 cells; type: functional, cell-based

## CC[C@H](C)[C@H]1C(=O)N[C@H](Cc2cc(Cl)c(O)c(Cl)c2)C(=O)N[C@@H](C(C)(C)O)C(=O)O[C@H](c2ccccc2)[C@H](C)/C=C/C=C(\C)[C@H](OC)C[C@H]2O[C@]2(C)C(=O)N1C
PANC-1
  IC50: > 200 nM
HepG2
  IC50: > 200 nM
Homo sapiens
  inhibition: Active
HCT-116
  IC50: > 200 nM

## CC[C@H](C)[C@H]1C(=O)N[C@H](Cc2cc(Cl)c(O)c(Cl)c2)C(=O)N[C@@H](C(C)(C)O)C(=O)O[C@H](c2ccccc2)[C@H](C)/C=C/C=C(\C)[C@H](OC)C/C=C(\C)C(=O)N1C
PANC-1
  IC50: 11.3 nM
HepG2
  IC50: 2.75 nM
Homo sapiens
  inhibition: Active
HCT-116
  IC50: 1.6 nM

## CC[C@H](C)[C@H]1C(=O)N[C@H](Cc2ccc(O)c(Br)c2)C(=O)N[C@@H](C(C)C)C(=O)O[C@H](c2ccccc2)[C@H](C)/C=C/C=C(\C)[C@H](OC)C[C@@H]2O[C@@]2(C)C(=O)N1C
PANC-1
  IC50: 15.7 nM
HepG2
  IC50: 6.84 nM
Homo sapiens
  inhibition: Active
HCT-116
  IC50: 3.93 nM

## CC[C@H](C)[C@H]1C(=O)N[C@H](Cc2cc(Cl)c(O)c(Cl)c2)C(=O)N[C@@H](C(C)(C)O)C(=O)O[C@H](c2ccccc2)[C@H](C)/C=C/C=C(\C)[C@H](OC)C[C@@H]2O[C@@]2(C)C(=O)N1C
PANC-1
  IC50: 12.2 nM
HepG2
  IC50: 3.36 nM
Homo sapiens
  inhibition: Active
HCT-116
  IC50: 2.11 nM

## CC[C@H](C)[C@H]1C(=O)N[C@H](Cc2ccc(O)c(Br)c2)C(=O)N[C@@H](C(C)C)C(=O)O[C@H](c2ccccc2)[C@H](C)/C=C/C=C(\C)[C@H](OC)C/C=C(\C)C(=O)N1C
PANC-1
  IC50: 55.8 nM
HepG2
  IC50: 53.7 nM
Homo sapiens
  inhibition: Active
HCT-116
  IC50: 13.2 nM

## CC[C@H](C)[C@H]1C(=O)N[C@H](Cc2cc(Cl)c(O)c(Cl)c2)C(=O)N[C@@H](C(C)C)C(=O)O[C@H](c2ccccc2)[C@H](C)/C=C/C=C(\C)[C@H](OC)C[C@@H]2O[C@@]2(C)C(=O)N1C
PANC-1
  IC50: 15.5 nM
HepG2
  IC50: 5.65 nM
Homo sapiens
  inhibition: Active
HCT-116
  IC50: 4.25 nM

## CC[C@H](C)[C@H]1C(=O)N[C@H](Cc2ccc(O)c(Br)c2)C(=O)N[C@@H](C(C)(C)O)C(=O)O[C@H](c2ccccc2)[C@H](C)/C=C/C=C(\C)[C@H](OC)C[C@H]2O[C@]2(C)C(=O)N1C
PANC-1
  IC50: > 200 nM
HepG2
  IC50: > 200 nM
Homo sapiens
  inhibition: Active
HCT-116
  IC50: > 200 nM

## CC[C@H](C)[C@H]1C(=O)N[C@H](Cc2ccc(O)c(Br)c2)C(=O)N[C@@H](C(C)(C)O)C(=O)O[C@H](c2ccccc2)[C@H](C)/C=C/C=C(\C)[C@H](OC)C[C@@H]2O[C@@]2(C)C(=O)N1C
PANC-1
  IC50: 9.61 nM
HepG2
  IC50: 2.98 nM
Homo sapiens
  inhibition: Active
HCT-116
  IC50: 1.59 nM

## CC[C@H](C)[C@H]1C(=O)N[C@H](Cc2cc(Cl)c(O)c(Cl)c2)C(=O)N[C@@H](C(C)C)C(=O)O[C@H](c2ccccc2)[C@H](C)/C=C/C=C(\C)[C@H](OC)C/C=C(\C)C(=O)N1C
PANC-1
  IC50: 137 nM
HepG2
  IC50: 104 nM
Homo sapiens
  inhibition: Active
HCT-116
  IC50: 21.6 nM

## CC[C@H](C)[C@H]1C(=O)N[C@H](Cc2ccc(O)c(Br)c2)C(=O)N[C@@H](C(C)(C)O)C(=O)O[C@H](c2ccccc2)[C@H](C)/C=C/C=C(\C)[C@H](OC)C/C=C(\C)C(=O)N1C
PANC-1
  IC50: 11.4 nM
HepG2
  IC50: 5.21 nM
Homo sapiens
  inhibition: Active
HCT-116
  IC50: 3.88 nM
